Some results are limits rather than exact numbers.

Compound `Cc1cccc(NC(=O)NC2CN(C(=O)C(C)(C)C)c3ccccc3N(CC(=O)OCc3ccccc3)C2=O)c1` (centres undefined) had a melting point of 136 to 140 °C.

`O=C(O)Cn1cc(Cc2nc3c(F)c(F)cc(F)c3s2)c2cc(Cl)ccc21` registered a melting point of 188 to 189 °C.

Compound `CN1Cc2c(cc(CN3CCOCC3)n2C)C(c2ccccc2)C1` (centres undefined) showed a melting point of 96 to 97 °C.

Take `CCOC(=O)Cc1nn(CC(=S)Nc2cc(C(F)(F)F)ccc2Br)c(=O)c2ccccc12`: the melting point came to 160 °C.

`C[C@@H](N(CCOCc1ccccc1)C(=O)c1ccc(OCC(F)(F)C(F)F)cc1)[C@](O)(Cn1cncn1)c1ccc(Cl)cc1Cl` (relative stereo) came in with a melting point of 51 to 62 °C.

In turn, `CC(=O)c1ccc(OCCc2nc(-c3ccccc3)oc2C)cc1` yielded a melting point of 70 to 71 °C.

The compound `NS(=O)(=O)c1ccc(-c2cccc(-c3nc(-c4ccc(C(F)(F)F)cc4)cc(C(F)F)n3)c2)s1` registered a melting point of 240 °C.

For `Clc1cccc(Nc2nccc(-c3ccnc(Cl)c3)n2)c1`, the melting point is 144 to 147 °C.

Take `O=C1Nc2cccc(Br)c2C(=O)N2CC[C@@H]12`: the melting point fell in the range of 182 to 183 °C.

The compound `Nc1cc(Cl)nc(C(=O)O)c1C(F)F` had a melting point of 149 to 151 °C.

The compound `CCOC(=O)c1cnn2c(-c3ccsc3)ccnc12` came in with a melting point of 129 to 130 °C.

`CCC12CCC3c4ccc(OC)cc4CCC3C1CC(=CN(C)C)C2=O` (centres undefined) yielded a melting point of 157 to 159 °C.

As to `O=C(NC1CC1)c1cc([N+](=O)[O-])[nH]n1`, the melting point was determined as 206 °C.

In the case of `COc1cccc(C=O)c1OS(=O)(=O)C(F)(F)F`, the melting point was in the range of 29.5 to 31.5 °C.

The compound `COC(=O)c1cc2cc(OC)ccc2[nH]1` yielded a melting point of 178 to 181 °C.

In turn, `CS(=O)(=O)N(C(=O)c1ccccc1)c1cc2occc(=O)c2cc1Oc1ccccc1` gave a melting point of 164 to 166 °C.

The compound `Cc1cccc(S(=O)(=O)Nc2cc(C)c(S(=O)(=O)C[N+](=O)[O-])c(C)c2)c1` came in with a melting point of 179 to 181 °C.

Compound `CCOC(=O)C=Cc1ccc(CCNS(=O)(=O)C=Cc2ccc(Cl)cc2)cc1` returned a melting point of 131 to 132 °C.

In turn, `Cn1ccc(C(=O)c2ccc(O)c(Cl)c2Cl)n1` showed a melting point of 220 to 222 °C.

As to `COCCc1nc2c(N)nc3cc(OCc4cccnc4)ccc3c2n1CC(C)(C)O`, the melting point was in the range of 200 to 202 °C.

Compound `COCCOc1cccc(-n2cc(-c3ccc(O)cc3)c3c(N)ncnc32)c1` registered a melting point of 103 to 112 °C.

`CCCc1ccc(NC(=O)c2ccccc2NCc2ccncc2)cc1C(F)(F)F` registered a melting point of 134 to 135 °C.

With `O=C1c2ccccc2C(=O)c2oc(-c3ccccc3F)nc21`, the melting point is > 260 °C.

As to `CCOC(=O)c1ccc(C=Cc2ccc(OC)cc2)cc1`, the melting point lay within 191 to 192 °C.

`COc1ccc(C2Cc3cc(OC)c(OC)c(OC)c3C2=O)cc1` (centres undefined) came in with a melting point of 104 to 106 °C.

On to `CC1(C)OC(=O)C[C@H]2NC(=O)[C@H]21`, for which the melting point fell in the range of 180 to 182 °C.

As for `COc1cc2c3ccc(OC)c(OC)c3n(S(=O)(=O)c3ccccc3)c2cc1OC`, the melting point is 205 to 206 °C.

`O=C(CCN1C(=O)c2ccccc2C1=O)c1ccccc1C(=O)c1ccc(Cl)cc1Cl` came in with a melting point of 133 to 134 °C.

The compound `O=C(c1cccc(C(F)(F)F)c1)c1ncccc1C(O)=NNc1ccc(C(F)(F)F)cc1` yielded a melting point of 127 to 129 °C.

`Clc1ccc(Cn2nncc2CN2CCC(c3ccccc3)(c3ccccc3)CC2)cc1` returned a melting point of 195 °C.

Compound `c1cc2c3c(c1)nc(N1CCOCC1)n3CCC2` had a melting point of 93 to 94 °C.

In turn, `CCCCCS(=O)(=O)NC(=O)OCc1ccc(OC(C)C)cc1Oc1ncc(C(F)(F)F)cc1Cl` yielded a melting point of 70 to 73 °C.

As for `CCOC(=O)CNC(=O)/C=C/S(=O)(=O)c1ccccc1`, the melting point lay within 156 to 157 °C.

In the case of `CC(=O)OC1C(N2CCCCC2)CC2C3CCC4CCC(O)CC4(C)C3CCC21C` (centres undefined), the melting point was in the range of 239 to 240 °C.

`CN(c1ccccc1)N1C(=O)C(Cl)=C(c2ccc(Cl)cc2)C1=O` displayed a melting point of 155 to 157 °C.

Take `COCC(=O)Nc1c(C(=O)c2cccc(Cl)c2)[nH]c2cc(Cl)ccc12`: the melting point was in the range of 154 to 155 °C.

The compound `Nc1sc(/C=C/Cc2ccc(Cl)cc2)c(CN(C2CCCCC2)C2CCCCC2)c1C(=O)c1ccc(Cl)cc1` returned a melting point of 143 to 146 °C.

On to `CC(C)(C)NC(=O)[C@@H]1C[C@H](Sc2ccccc2)CN1C(=O)OC(C)(C)C`, for which the melting point lay in the range of 119 to 121 °C.

Compound `CS(=O)(=O)N(c1cc2c(cc1Oc1ccccc1)C(C#N)CC2)S(C)(=O)=O` (centres undefined) yielded a melting point of 200 °C.

Turning to `COc1ccc([C@@H]2O[C@@](O[Si](C)(C)C)(C(F)(F)F)[C@H](Cc3ccccc3)N2C(=O)OCc2ccccc2)cc1`, the melting point is 41 to 42 °C.

`CS(=O)(=O)N(Cc1cccnc1)c1ccc(F)cc1` registered a melting point of 112 to 113 °C.

As for `O=C(O)C(=O)c1ccc(OCCOc2ccc(-c3ccccc3)cc2)cc1`, the melting point lay within 179 to 180 °C.

Turning to `N#CC(=NOC(=O)OCC(Cl)(Cl)Cl)c1ccccc1`, the melting point was in the range of 82 to 84 °C.

For `COc1c(-c2cc3c(s2)CCC(CO)C3)ccc2c(=O)c(C(=O)O)cn(C3CC3)c12` (centres undefined), the melting point lay in the range of 218 to 219 °C.

Take `CC(C)(C)C(NC(=O)c1ccc(Cl)cc1)Nc1c(Nc2ccccn2)c(=O)c1=O` (centres undefined): the melting point was 246 to 248 °C.

Compound `O=C(NC1CC1)c1nc(-c2ccccc2)c(-c2ccc(=O)n(Cc3ccccc3)n2)s1` yielded a melting point of 151 to 152 °C.

`CC(=O)NNc1ccc(-n2c(-c3ccccc3)csc2=S)cc1` displayed a melting point of 230 to 232 °C.

The compound `CCOC(=O)C1N=C(c2ccccc2)c2cc([N+](=O)[O-])ccc2NC1=O` (centres undefined) displayed a melting point of 271 °C.

The compound `Nc1nc(NC2Cc3ccccc3N(Cc3ccc(F)cc3F)C2)c2cn[nH]c2n1` (centres undefined) gave a melting point of 110 to 114 °C.

In the case of `O=C(O)c1ccc(S(=O)(=O)Oc2ccc(-c3ccc(-c4c(C(=O)c5ccccc5)oc5ccccc45)cc3)cc2C2CCCC2)cc1O`, the melting point was in the range of 105 to 108 °C.

Take `Cc1nc(N2C(=O)N(CCc3ccc(F)cc3)CC2O)sc1C(=O)NCc1cccnc1` (centres undefined): the melting point was 182 to 184 °C.

`Cc1cc(Nc2ccc(F)cc2)nc(Nc2ccc(S(=O)(=O)N(C)C3CCN(Cc4ccoc4)CC3)cc2)n1` came in with a melting point of 156 °C.

In turn, `CCCCCCCCCCCC(=O)NCCCSc1ccncc1` registered a melting point of 71 to 72 °C.

Take `COc1cc2c3c(ccc([N+](=O)[O-])c3c1[N+](=O)[O-])C(=O)N(O)C2=O`: the melting point fell in the range of 272 to 273 °C.

As for `CCOC(=O)C1=C(C#N)NC(C)=C(C(=O)OCCOCc2ccccc2)C1c1ccccc1[N+](=O)[O-]` (centres undefined), the melting point lay in the range of 139 to 140 °C.

`COC(=O)c1cc(C)cc(OC)c1C1=C(OC)C(=O)c2c(OC(C)=O)cccc2C1=O` had a melting point of 127 to 128 °C.

`COc1cc2c(cc1N1CCN(CC3Cc4ccccc4C3)CC1)OC=CCO2` registered a melting point of 120 to 122 °C.

Compound `CN1CCN(c2cc3c(cc2F)c(=O)c(C(=O)O)cn3CCO)CC1` displayed a melting point of 270 °C.

`CC(C)(N)Cc1ccc(NS(=O)(=O)c2ccccc2)cc1` had a melting point of 180 to 181 °C.

`N#CC(Br)c1ccccn1` (centres undefined) gave a melting point of 62 to 64 °C.

Compound `Cc1ccc(N(C)C(=O)CN(C(=O)CNC(=O)Nc2cccc(C)c2)c2ccccc2)cc1` yielded a melting point of 162 °C.

For the compound `CCn1cc(C(=O)O)c(=O)c2cc(F)c(N3CCN(c4ncccn4)C(C)C3)c(OC(F)F)c21` (centres undefined), the melting point lay within 219 to 221 °C.

`COc1ccc2[nH]c(S(=O)Cc3cc(N(C)C)c(F)cn3)nc2c1` (centres undefined) came in with a melting point of 99 to 102 °C.

Compound `CC(=O)SCC(CC(C)C)C(=O)Nc1cccc(C(=O)O)c1` (centres undefined) yielded a melting point of 184 to 186 °C.

As for `Clc1cccc(Cl)c1C1=NC2(CO1)COC(c1ccccc1)OC2` (centres undefined), the melting point is 158 to 160 °C.

`CSc1ccc(C(=O)Cc2ccc(F)cc2)cc1` displayed a melting point of 139 to 140 °C.

Consider `NNC(=O)N(NC(=O)CSC(=O)c1ccccc1)C(=O)CSC(=O)c1ccccc1`, for which the melting point lay within 184 to 190 °C.

As for `O=C(Nc1ccc(-n2nc(C(F)(F)F)cc2C(F)(F)F)cc1)c1ccc[nH]1`, the melting point is > 240 °C.

As for `COc1ccc2c(c1)C(=O)c1nc(-c3ccccc3)sc1C2=O`, the melting point amounted to 221 °C.

In turn, `C=CCOn1cc(C(=O)NCc2ccc(Cl)cc2)c(=O)c2ccccc21` yielded a melting point of 113 to 114 °C.

The compound `O=C(CC(=O)c1cc(CN2CCOCC2)sc1Cl)NCc1ccc(Cl)cc1` displayed a melting point of 109 to 112 °C.

`COc1ncccc1NC(=O)[C@H]1[C@H](c2ccc(S(N)(=O)=O)cc2)C1(C)C` (relative stereo) gave a melting point of 216 to 218 °C.

For the compound `CC(C)(C)OC(=O)NCC(=O)NNc1ccc(N)cc1`, the melting point amounted to 144 °C.

With `O=Cc1c[nH]c2cc(F)c(OCc3ccccc3)cc12`, the melting point stood at 190 °C.

Regarding `Cc1cn(C)c2cc(C(C)C)c(Oc3cnc(N)nc3N)cc12`, the melting point worked out at 185 °C.

Take `COc1ccccc1C1CCN(C[C@@H](CC2CCCCC2)NC(=O)C2CCCCC2)CC1`: the melting point lay in the range of 100 to 103 °C.

`Cc1nc(C)c(C(C)(O)c2ccccc2)s1` (centres undefined) yielded a melting point of 131 to 132 °C.

Compound `CCCc1c(C)c(NC(=O)CC(C)(C)C)c(C)c2c1OCC2c1ccc(C(C)C)cc1` (centres undefined) displayed a melting point of 145 to 148 °C.

In turn, `O=C1CNC(c2ccc([N+](=O)[O-])cc2)=NN1` returned a melting point of 284 to 286 °C.

Consider `CCCc1nc(C(C)(C)O)c(C(=O)OCC)n1Cc1ccc(-c2ccccc2C(=O)OC(C)(C)C)cc1`, for which the melting point is 90 to 91 °C.

Consider `C[C@](O)(COc1ccc(C#N)c(F)c1)C(=O)Nc1ccc(C#N)c(C(F)(F)F)c1`, for which the melting point is 124 to 125 °C.

`O=C1C(c2c[nH]c3ccccc23)C(c2c[nH]c3ccccc23)C(=O)N1Cc1ccccc1` (centres undefined) yielded a melting point of 112 to 115 °C.

With `CCOC(=O)c1ccnnc1NC(=O)Cc1c(F)cc(F)cc1F`, the melting point was determined as 135 °C.

On to `COC(=O)C(Cc1ccc(-c2cccc(CNCC(=O)c3ccccc3)c2)cc1)Nc1ccccc1C(=O)c1ccccc1` (centres undefined), for which the melting point is 75 °C.

Usually melting point stands for the temperature, or range, at which the solid turns liquid.

These data come from a melting point compilation (Tetko et al.; mined from patent text by program, amines drawn as free bases though some values may be those of a salt).
